In publication PMC10224004, “Modulation of Distribution and Diffusion through the Lipophilic Membrane with Cyclodextrins Exemplified by a Model Pyridinecarboxamide Derivative” (Pharmaceutics, 2023):
Where two headings read alike, the source gives them in different places.

How the values were obtained:
[1] = Membrane permeability in Franz diffusion cell; assay type: in vitro ADME; details: 310.2 K
Method: Membrane permeability coefficients of the studied drugs were measured in the Franz diffusion cell of vertical type (PermeGear, Inc., Hellertown, PA, USA) with 7 mL/1 mL volumes of the donor and acceptor solutions through the reverse dialysis set up. The PermeaPad barrier (PHABIOC, Fritz-Souchon-Str.27 32339 Espelkamp Germany, www.innome.de) (0.785 cm^2 effective surface area) was mounted between the donor and acceptor chambers of the diffusion cell. The temperature was maintained at 310.2 ± 0.5 K throughout the experiment. Samples of 0.5 mL were withdrawn each 30 min from the acceptor solution and replaced with an equal amount of fresh buffer. Permeability experiments lasted over five hours in all cases. The solutions concentrations were analyzed via spectrophotometer (Spectramax 190; Molecular Devices Corporation, San Jose, CA, USA) in 96-well UV black plates (Costar) at a wavelength of 264 nm and 266 nm for IPN and INZ/iNAM, respectively. The dependences of the amount of the permeated drug over the surface area (dQ/A) on time (t) were plotted and flux (J) across the membrane was calculated by the equation:(11) J=dQ/A×dt The apparent permeability coefficients (Papp) were determined by normalizing the flux measured over the concentration of the drug in the donor compartment (C0) by the equation:(12) Papp=J/C0 Each permeability experiment was carried out in triplicate.
Similarly to the distribution, the permeability coefficients were obtained in the absence (for IPN, and iNAM) and in the presence of cyclodextrins (HP-β-CD and M-β-CD) (for IPN only) in the donor solution. The concentrations of cyclodextrins were 0.0115 M, 0.025 M and 0.035 M. The permeability coefficient for INZ through the PermeaPad barrier was determined in our previous investigation and taken in the present study for the sake of comparison.

[2] = Shake-flask distribution in the n-hexane/buffer pH 7.4 system; assay type: physicochemical; details: for logDapphex/buff / Dapphex/buff ·10^4: 310.2 K; for logDapphex/buff: cyclodextrin in buffer phase as in the label; for Dapphex/buff ·10^4: value = D·10^4, cyclodextrin in buffer phase as in the label; for Molar concentration C2 buf/hex ∙10^3 (aqueous phase): V(hex):V(buf)= 6:3 without and 10:3 with cyclodextrins, molar concentration × 10^3
Method: (§1) Apparent distribution coefficients of the compounds were measured in two systems: 1-octanol/buffer pH 7.4 and n-hexane/buffer pH 7.4 by the shake-flask technique at 310.2 ± 0.5 K in the absence (for IPN, INZ and iNAM) and in the presence of cyclodextrins (HP-β-CD and M-β-CD) in the aqueous phase (for IPN only). The concentrations of cyclodextrins were: 0.0115 M, 0.025 M and 0.035 M. The experiments were carried out according to the literature. In brief, the following experimental procedure was performed. Aqueous buffer pH 7.4 and organic solvent (1-octanol or n-hexane) were mixed during 48 h to obtain mutually saturated phases. The stock solutions containing the drug were prepared in buffer pH 7.4 saturated with the organic solvent. Both aliquots of the aqueous stock solution and organic solvent were placed in screwed glass vials and mixed at 310.2 ± 0.5 K during 3 days. The concentrations of the stock solutions were approximately 6.0 × 10^−3 M for both systems. The volumes of the phases were 3:3 in the 1-octanol/buffer pH 7.4 systems and 6:3 and 10:3 in the n-hexane/buffer pH 7.4 systems, without and with cyclodextrins, respectively. After mixing, the equilibrium was achieved; the vials were maintained at 310.2 ± 0.5 K, and the phases were separated from each other. The drug concentrations were determined using spectrophotometer (Cary-50 Varian, Palo Alto, CA, USA, Software Version 3.00 (339)). The experiments were carried out at least four-fold with an accuracy of 2–4%. The distribution coefficients were calculated using the following equation:(6) DappOrg/buf=C2Org/buf⋅V^buf/Org/C2buf/Org⋅V^Org/buf where DappOrg/buf is the distribution coefficient calculated from the concentrations of the compounds expressed in molar scale, C2Org/buf and C2buf/Org are the molar concentrations of the drug in the mutually saturated organic solvent/buffer and buffer/organic solvent phases, respectively, and V^buf/Org and V^Org/buf are the volumes of the saturated buffer and organic solvent phases, respectively. In addition, the ΔlogD parameters were estimated taking into account the distribution coefficients both in the 1-octanol/buffer pH 7.4 and n-hexane/buffer H 7.4 systems. As Abraham et al. stated, the difference between the distribution parameters in these systems ( ΔlogD ) can be applied to assess the specific interactions including a hydrogen-bonding impact to the drug transport properties and can be calculated as follows:(7) ΔlogD=logDappoct/buf−logDapphex/buf

[3] = Shake-flask solubility in 1-octanol and dissolution thermodynamics; assay type: physicochemical; details: for solubility higher in 1-octanol than in n-hexane: 310.2 K, ratio of molar solubilities
Method: (§2) The solubility of the investigated drugs in 1-octanol and n-hexane was determined by the shake-flask technique. To this end, the glass vials containing the solutions with the excess amount of the compound were placed in an air thermostat and stirred at a predetermined temperature for no less than 24 h (equilibrium state). After this, the suspensions were left for 5 h or more to precipitate the undissolved drug and centrifuged (Biofuge pico, Thermo Electron LED GmbH, Langenselbold, Germany) at a predetermined temperature during 20 min (10,000 rpm). The aliquots of the clear solutions were taken and examined via a spectrophotometer (Cary-50 Varian, Palo Alto, CA, USA, Software Version 3.00 (339)). The molar concentrations of the compounds in the solvents were calculated using calibration curves at the appropriate wavelength characteristic for each substance. The experimental results were reported as an average of at least three replicated experiments with an accuracy of 2–4%. In order to evaluate the thermodynamic parameters of the IPN dissolution in 1-octanol and n-hexane, the molar solubility ( S2 ) was recalculated to the mole fraction ( X2 ) by the equation:(1) X2=M2S2/S2(M1−M2)+1000ρ, where M1 and M2 are the molar masses of IPN and organic solvent, respectively, and ρ (g∙cm^−3) is the density of the pure solvents. The linear functions describing the temperature dependences of the solubility within the temperature interval from 293.2 ± 0.5 K to 313.2 ± 0.5 K for both organic solvents were derived:(2) lnX2=A+B/T
(§3) The apparent solution enthalpies ΔHsol0 were determined by the van’t Hoff equation:(3) ∂(lnX2)/∂T=ΔHsol0/RT^2
(§4) The apparent dissolution Gibbs energies ( ΔGsol ) and entropies ( ΔSsol ) were calculated at a standard temperature of 298.2 K and 310.2 K:(4) ΔGsol298.2/310.2=−RT(lnX2298.2/310.2) (5) ΔGsol298.2/310.2=ΔHsol0−TΔSsol298.2/310.2 where R is the universal gas constant.

[4] = Shake-flask solubility in n-hexane and dissolution thermodynamics; assay type: physicochemical; details: T 310.2 K; value = S2 × 10^3
Method: as §2, §3, §4

[5] = Shake-flask distribution in the 1-octanol/buffer pH 7.4 system; assay type: physicochemical; details: for Dappoct/buff / logDappoct/buff: 310.2 K, cyclodextrin in buffer phase as in the label; for Molar concentration C2 buf/oct ∙10^3 (aqueous phase) / Molar concentration C2 oct/buf ∙10^3 (organic phase): V(oct):V(buf)= 3:3, molar concentration × 10^3
Method: as §1

[6] = ΔlogD parameter (logDapp oct/buf − logDapp hex/buf); assay type: physicochemical; details: 310.2 K; pH 7.4; cyclodextrin in buffer phase as in the label
Method: as §1, with “The volumes of the phases were 3:3 in the 1-octanol/buffer pH 7.4 systems and 6:3 and 10:3 in the n-hexane/buffer pH 7.4 systems, without and with cyclodextrins, respectively. After mixing, the equilibrium was achieved; the vials were maintained at 310.2 ± 0.5 K, and the phases were separated from each other.” left out, “The experiments were carried out at least four-fold with an accuracy of 2–4%.” left out, “In addition, the ΔlogD parameters were estimated taking into account the distribution coefficients both in the 1-octanol/buffer pH 7.4 and n-hexane/buffer H 7.4 systems.” left out

[7] = parameters: method as in doi:10.1016/j.jct.2015.08.022; details: cited from earlier work
[8] = PermeaPad barrier, 310.2 K, cited from earlier work

steady penetrate rate - flux J∙10^4 ([1]; PermeaPad barrier, pH 7.4, printed value = J × 10^4, cyclodextrin in donor solution as in the label)	Papp∙10^5 ([1]; PermeaPad barrier, pH 7.4, value = Papp × 10^5, cyclodextrin in donor solution as in the label)	Papp at 5 h ([1]; pH 7.4, PermeaPad barrier, without cyclodextrins, read-out: permeability coefficient (Papp)) [×10⁻⁶ cm/s]	logDapphex/buff [2]	Dapphex/buff ·10^4 [2]	Molar concentration C2 buf/hex ∙10^3 (aqueous phase) [2]	solubility higher in 1-octanol than in n-hexane [3] [fold]	Molar solubility S2 × 10^1 in 1-Octanol ([3]; T 310.2 K, value = S2 × 10^1)	Molar solubility S2 × 10^3 in n-Hexane [4]	Dappoct/buff [5]	logDappoct/buff [5]	Molar concentration C2 buf/oct ∙10^3 (aqueous phase) [5]	Molar concentration C2 oct/buf ∙10^3 (organic phase) [5]	ΔlogD [6]	SMILES	TΔSsol298.2 ([7]; 1-octanol, 298.2 K) [kcal/mol]	ΔGsol298.2 ([7]; 1-octanol, 298.2 K) [kcal/mol]	ΔHsol298.2 ([7]; 1-octanol, 298.2 K) [kcal/mol]	Molar solubility S2 × 10^1 in 1-Octanol ([7]; T 310.2 K, value = S2 × 10^1)	Papp∙10^5 ([8]; pH 7.4, value = Papp × 10^5)	permeability coefficient (Papp) ([8]; without cyclodextrins) [×10⁻⁶ cm/s]
0.59 ∙10^4 (μM∙cm‐2∙s‐1)	0.73±0.04 ∙10^5 (cm∙s‐1)	7.3	−3.241	5.742 ± 0.172 ·10^4	8.64 ∙10^3	115	1.26 ± 0.02 × 10^1 (M)	1.10 ± 0.04 × 10^3 (M)	0.446 ± 0.013	−0.351	6.33 ∙10^3	2.83 ∙10^3	2.89	NC(=O)c1ccncc1 [iNAM, pyridine-4-carboxylic acid amide]						
			−3.083	8.254 ± 0.188 ·10^4	9.54 ∙10^3	130		1.37 ± 0.05 × 10^3 (M)	0.633 ± 0.021	−0.199	5.31 ∙10^3	3.36 ∙10^3	2.88	NNC(=O)c1ccncc1 [INZ, isonicotinic acid hydrazide]	2.56	3.32	5.88	^a 1.78 ± 0.04 × 10^1 (M)	1.44±0.08 ∙10^5 (cm∙s‐1)	14.4
